Results as given in US12594268B2, “Methods of treating Fabry disease in patients having a mutation in the GLA gene” (Amicus Therapeutics, Inc., priority 2018, dated 2026).

Biological target: T1, α-Gal A mutant form N408Y (Homo sapiens, UniProt P06280, N408Y)
T1 construct: expressed in transfected cells; host or cells: HEK-293
T1 sequence (P06280 32-429 N408Y): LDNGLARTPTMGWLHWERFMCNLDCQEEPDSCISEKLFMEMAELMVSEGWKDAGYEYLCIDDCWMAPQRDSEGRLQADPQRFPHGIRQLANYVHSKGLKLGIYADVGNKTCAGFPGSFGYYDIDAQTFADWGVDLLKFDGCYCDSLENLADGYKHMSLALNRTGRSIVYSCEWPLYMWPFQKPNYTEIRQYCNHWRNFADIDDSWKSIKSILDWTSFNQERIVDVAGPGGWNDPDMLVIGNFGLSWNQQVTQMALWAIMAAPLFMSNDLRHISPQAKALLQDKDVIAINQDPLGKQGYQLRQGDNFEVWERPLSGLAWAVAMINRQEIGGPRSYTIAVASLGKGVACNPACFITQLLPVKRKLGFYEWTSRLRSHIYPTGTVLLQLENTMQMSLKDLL
Experiment: α-Gal A activity in lysates of transfected HEK-293 cells, N408Y
Format: cell-based
Protocol: Baseline and 10 μM migalastat α-Gal A activity: Differences in the α-Gal A activity between lysates incubated in the absence and presence of 10 μM migalastat were determined using a one-tailed, Mann Whitney U test; an increase at 10 μM migalastat with a p<0.05 was considered significant.
10 μM migalastat α-Gal A activity (% WT)=(α-Gal A activity in mutant transfected cell lysates incubated with 10 μM migalastat÷α-Gal A activity in wild-type transfected cell lysates without migalastat)*100.
Absolute increase (% WT)=is the 10 μM migalastat α-Gal A activity (% WT) minus the baseline α-Gal A activity (% WT).
Relative increase is the 10 μM migalastat α-Gal A activity in mutant transfected cell lysates÷baseline α-Gal A activity in mutant transfected cell lysates incubated without migalastat.

[1] = HEK-293 lysates, 10 μM migalastat, 5 days, mean ± SEM

Structure (SMILES): OC[C@H]1NC[C@H](O)[C@@H](O)[C@H]1O [migalastat, (2R,3S,4R,5S)-2-(hydroxymethyl) piperdine-3,4,5-triol]
- Absolute increase (% WT) (10 μM migalastat minus baseline): 44.6 % WT
- Relative increase (10 μM migalastat ÷ baseline activity): 2.09
- 10 μM migalastat α-Gal A activity [1]: 23273 ± 2965 nmol/mg/h
- 10 μM migalastat α-Gal A activity (% WT) [1]: 85.5 ± 7.7 % WT
